CN1CCN(C2=Nc3cc(Cl)ccc3Nc3ccccc32)CC1
solubility (mole fraction) (in 2-butanone, 278.15 K): 0.0216 | solubility (mole fraction) (in 2-butanone, 283.15 K): 0.0242 | solubility (mole fraction) (in 2-butanone, 288.15 K): 0.0274 | solubility (mole fraction) (in 2-butanone, 293.15 K): 0.0303 | solubility (mole fraction) (in 2-butanone, 298.15 K): 0.0339 | solubility (mole fraction) (in 2-butanone, 303.15 K): 0.0374 | solubility (mole fraction) (in 2-butanone, 308.15 K): 0.0416 | solubility (mole fraction) (in 2-butanone, 313.15 K): 0.0458 | solubility (mole fraction) (in 2-butanone, 318.15 K): 0.0505 | solubility (mole fraction) (in 2-butanone, 323.15 K): 0.0558 | solubility (mole fraction) (in DMF, 278.15 K): 0.0953 | solubility (mole fraction) (in DMF, 283.15 K): 0.1 | solubility (mole fraction) (in DMF, 288.15 K): 0.106 | solubility (mole fraction) (in DMF, 293.15 K): 0.112 | solubility (mole fraction) (in DMF, 298.15 K): 0.117 | solubility (mole fraction) (in DMF, 303.15 K): 0.123 | solubility (mole fraction) (in DMF, 308.15 K): 0.129 | solubility (mole fraction) (in DMF, 313.15 K): 0.135 | solubility (mole fraction) (in DMF, 318.15 K): 0.141 | solubility (mole fraction) (in DMF, 323.15 K): 0.148 | solubility (mole fraction) (in THF, 278.15 K): 0.0624 | solubility (mole fraction) (in THF, 283.15 K): 0.0668 | solubility (mole fraction) (in THF, 288.15 K): 0.0716 | solubility (mole fraction) (in THF, 293.15 K): 0.0765 | solubility (mole fraction) (in THF, 298.15 K): 0.0815 | solubility (mole fraction) (in THF, 303.15 K): 0.0866 | solubility (mole fraction) (in THF, 308.15 K): 0.0919 | solubility (mole fraction) (in THF, 313.15 K): 0.0978 | solubility (mole fraction) (in THF, 318.15 K): 0.103 | solubility (mole fraction) (in THF, 323.15 K): 0.109 | solubility (mole fraction) (in acetone, 278.15 K): 0.0116 | solubility (mole fraction) (in acetone, 283.15 K): 0.0133 | solubility (mole fraction) (in acetone, 288.15 K): 0.0151 | solubility (mole fraction) (in acetone, 293.15 K): 0.0172 | solubility (mole fraction) (in acetone, 298.15 K): 0.0197 | solubility (mole fraction) (in acetone, 303.15 K): 0.0223 | solubility (mole fraction) (in acetone, 308.15 K): 0.0251 | solubility (mole fraction) (in acetone, 313.15 K): 0.0283 | solubility (mole fraction) (in acetone, 318.15 K): 0.0323 | solubility (mole fraction) (in acetone, 323.15 K): 0.0363 | solubility (mole fraction) (in acetonitrile, 278.15 K): 0.00213 | solubility (mole fraction) (in acetonitrile, 283.15 K): 0.00234 | solubility (mole fraction) (in acetonitrile, 288.15 K): 0.0026 | solubility (mole fraction) (in acetonitrile, 293.15 K): 0.00285 | solubility (mole fraction) (in acetonitrile, 298.15 K): 0.00316 | solubility (mole fraction) (in acetonitrile, 303.15 K): 0.00344 | solubility (mole fraction) (in acetonitrile, 308.15 K): 0.0038 | solubility (mole fraction) (in acetonitrile, 313.15 K): 0.00413 | solubility (mole fraction) (in acetonitrile, 318.15 K): 0.00452 | solubility (mole fraction) (in acetonitrile, 323.15 K): 0.0049 | solubility (mole fraction) (in chloroform, 278.15 K): 0.0625 | solubility (mole fraction) (in chloroform, 283.15 K): 0.0652 | solubility (mole fraction) (in chloroform, 288.15 K): 0.0681 | solubility (mole fraction) (in chloroform, 293.15 K): 0.0712 | solubility (mole fraction) (in chloroform, 298.15 K): 0.0741 | solubility (mole fraction) (in chloroform, 303.15 K): 0.0771 | solubility (mole fraction) (in chloroform, 308.15 K): 0.0801 | solubility (mole fraction) (in chloroform, 313.15 K): 0.0837 | solubility (mole fraction) (in chloroform, 318.15 K): 0.0871 | solubility (mole fraction) (in chloroform, 323.15 K): 0.0905 | solubility (mole fraction) (in ethanol, 278.15 K): 0.00533 | solubility (mole fraction) (in ethanol, 283.15 K): 0.0059 | solubility (mole fraction) (in ethanol, 288.15 K): 0.0066 | solubility (mole fraction) (in ethanol, 293.15 K): 0.00735 | solubility (mole fraction) (in ethanol, 298.15 K): 0.00811 | solubility (mole fraction) (in ethanol, 303.15 K): 0.0089 | solubility (mole fraction) (in ethanol, 308.15 K): 0.00988 | solubility (mole fraction) (in ethanol, 313.15 K): 0.0108 | solubility (mole fraction) (in ethanol, 318.15 K): 0.0119 | solubility (mole fraction) (in ethanol, 323.15 K): 0.0131 | solubility (mole fraction) (in ethyl acetate, 278.15 K): 0.0109 | solubility (mole fraction) (in ethyl acetate, 283.15 K): 0.0121 | solubility (mole fraction) (in ethyl acetate, 288.15 K): 0.0135 | solubility (mole fraction) (in ethyl acetate, 293.15 K): 0.0152 | solubility (mole fraction) (in ethyl acetate, 298.15 K): 0.0169 | solubility (mole fraction) (in ethyl acetate, 303.15 K): 0.0191 | solubility (mole fraction) (in ethyl acetate, 308.15 K): 0.0209 | solubility (mole fraction) (in ethyl acetate, 313.15 K): 0.0232 | solubility (mole fraction) (in ethyl acetate, 318.15 K): 0.0256 | solubility (mole fraction) (in ethyl acetate, 323.15 K): 0.0283 | solubility (mole fraction) (in ethyl formate, 278.15 K): 0.032 | solubility (mole fraction) (in ethyl formate, 283.15 K): 0.0343 | solubility (mole fraction) (in ethyl formate, 288.15 K): 0.0367 | solubility (mole fraction) (in ethyl formate, 293.15 K): 0.0393 | solubility (mole fraction) (in ethyl formate, 298.15 K): 0.0419 | solubility (mole fraction) (in ethyl formate, 303.15 K): 0.0443 | solubility (mole fraction) (in ethyl formate, 308.15 K): 0.047 | solubility (mole fraction) (in ethyl formate, 313.15 K): 0.0499 | solubility (mole fraction) (in ethyl formate, 318.15 K): 0.0527 | solubility (mole fraction) (in ethyl formate, 323.15 K): 0.0564 | solubility (mole fraction) (in isobutanol, 278.15 K): 0.00666 | solubility (mole fraction) (in isobutanol, 283.15 K): 0.00731 | solubility (mole fraction) (in isobutanol, 288.15 K): 0.00809 | solubility (mole fraction) (in isobutanol, 293.15 K): 0.00888 | solubility (mole fraction) (in isobutanol, 298.15 K): 0.00987 | solubility (mole fraction) (in isobutanol, 303.15 K): 0.0108 | solubility (mole fraction) (in isobutanol, 308.15 K): 0.0119 | solubility (mole fraction) (in isobutanol, 313.15 K): 0.013 | solubility (mole fraction) (in isobutanol, 318.15 K): 0.0142 | solubility (mole fraction) (in isobutanol, 323.15 K): 0.0155 | solubility (mole fraction) (in isopentanol, 278.15 K): 0.0083 | solubility (mole fraction) (in isopentanol, 283.15 K): 0.00932 | solubility (mole fraction) (in isopentanol, 288.15 K): 0.0103 | solubility (mole fraction) (in isopentanol, 293.15 K): 0.0116 | solubility (mole fraction) (in isopentanol, 298.15 K): 0.0128 | solubility (mole fraction) (in isopentanol, 303.15 K): 0.0142 | solubility (mole fraction) (in isopentanol, 308.15 K): 0.0156 | solubility (mole fraction) (in isopentanol, 313.15 K): 0.0173 | solubility (mole fraction) (in isopentanol, 318.15 K): 0.019 | solubility (mole fraction) (in isopentanol, 323.15 K): 0.0212 | solubility (mole fraction) (in isopropanol, 278.15 K): 0.00278 | solubility (mole fraction) (in isopropanol, 283.15 K): 0.00322 | solubility (mole fraction) (in isopropanol, 288.15 K): 0.00367 | solubility (mole fraction) (in isopropanol, 293.15 K): 0.00419 | solubility (mole fraction) (in isopropanol, 298.15 K): 0.00487 | solubility (mole fraction) (in isopropanol, 303.15 K): 0.00544 | solubility (mole fraction) (in isopropanol, 308.15 K): 0.00615 | solubility (mole fraction) (in isopropanol, 313.15 K): 0.00693 | solubility (mole fraction) (in isopropanol, 318.15 K): 0.00781 | solubility (mole fraction) (in isopropanol, 323.15 K): 0.00894 | solubility (mole fraction) (in methanol, 278.15 K): 0.00633 | solubility (mole fraction) (in methanol, 283.15 K): 0.00702 | solubility (mole fraction) (in methanol, 288.15 K): 0.00766 | solubility (mole fraction) (in methanol, 293.15 K): 0.00839 | solubility (mole fraction) (in methanol, 298.15 K): 0.00921 | solubility (mole fraction) (in methanol, 303.15 K): 0.00999 | solubility (mole fraction) (in methanol, 308.15 K): 0.0109 | solubility (mole fraction) (in methanol, 313.15 K): 0.012 | solubility (mole fraction) (in methanol, 318.15 K): 0.013 | solubility (mole fraction) (in methanol, 323.15 K): 0.014 | solubility (mole fraction) (in methyl acetate, 278.15 K): 0.0124 | solubility (mole fraction) (in methyl acetate, 283.15 K): 0.0141 | solubility (mole fraction) (in methyl acetate, 288.15 K): 0.0158 | solubility (mole fraction) (in methyl acetate, 293.15 K): 0.0173 | solubility (mole fraction) (in methyl acetate, 298.15 K): 0.019 | solubility (mole fraction) (in methyl acetate, 303.15 K): 0.021 | solubility (mole fraction) (in methyl acetate, 308.15 K): 0.0229 | solubility (mole fraction) (in methyl acetate, 313.15 K): 0.0251 | solubility (mole fraction) (in methyl acetate, 318.15 K): 0.0277 | solubility (mole fraction) (in methyl acetate, 323.15 K): 0.0303 | solubility (mole fraction) (in n-butanol, 278.15 K): 0.00796 | solubility (mole fraction) (in n-butanol, 283.15 K): 0.00891 | solubility (mole fraction) (in n-butanol, 288.15 K): 0.01 | solubility (mole fraction) (in n-butanol, 293.15 K): 0.0113 | solubility (mole fraction) (in n-butanol, 298.15 K): 0.0126 | solubility (mole fraction) (in n-butanol, 303.15 K): 0.0141 | solubility (mole fraction) (in n-butanol, 308.15 K): 0.0154 | solubility (mole fraction) (in n-butanol, 313.15 K): 0.0172 | solubility (mole fraction) (in n-butanol, 318.15 K): 0.0189 | solubility (mole fraction) (in n-butanol, 323.15 K): 0.0208 | solubility (mole fraction) (in n-pentanol, 278.15 K): 0.00905 | solubility (mole fraction) (in n-pentanol, 283.15 K): 0.0102 | solubility (mole fraction) (in n-pentanol, 288.15 K): 0.0115 | solubility (mole fraction) (in n-pentanol, 293.15 K): 0.0128 | solubility (mole fraction) (in n-pentanol, 298.15 K): 0.0143 | solubility (mole fraction) (in n-pentanol, 303.15 K): 0.0159 | solubility (mole fraction) (in n-pentanol, 308.15 K): 0.0174 | solubility (mole fraction) (in n-pentanol, 313.15 K): 0.0193 | solubility (mole fraction) (in n-pentanol, 318.15 K): 0.0213 | solubility (mole fraction) (in n-pentanol, 323.15 K): 0.0231 | solubility (mole fraction) (in n-propanol, 278.15 K): 0.00708 | solubility (mole fraction) (in n-propanol, 283.15 K): 0.00814 | solubility (mole fraction) (in n-propanol, 288.15 K): 0.00924 | solubility (mole fraction) (in n-propanol, 293.15 K): 0.0105 | solubility (mole fraction) (in n-propanol, 298.15 K): 0.0118 | solubility (mole fraction) (in n-propanol, 303.15 K): 0.0134 | solubility (mole fraction) (in n-propanol, 308.15 K): 0.0148 | solubility (mole fraction) (in n-propanol, 313.15 K): 0.0164 | solubility (mole fraction) (in n-propanol, 318.15 K): 0.0183 | solubility (mole fraction) (in n-propanol, 323.15 K): 0.0204 | solubility (mole fraction) (in sec-butanol, 278.15 K): 0.0046 | solubility (mole fraction) (in sec-butanol, 283.15 K): 0.00509 | solubility (mole fraction) (in sec-butanol, 288.15 K): 0.00566 | solubility (mole fraction) (in sec-butanol, 293.15 K): 0.00617 | solubility (mole fraction) (in sec-butanol, 298.15 K): 0.0068 | solubility (mole fraction) (in sec-butanol, 303.15 K): 0.00744 | solubility (mole fraction) (in sec-butanol, 308.15 K): 0.00812 | solubility (mole fraction) (in sec-butanol, 313.15 K): 0.00893 | solubility (mole fraction) (in sec-butanol, 318.15 K): 0.00975 | solubility (mole fraction) (in sec-butanol, 323.15 K): 0.0107

From BigSolDB 2.1
